According to paper PMC2758719 (Molecular Systems Biology, 2009):

Molecular target: T1, PfkA (Escherichia coli, UniProt P0A796)
T1 sequence (P0A796 1-320): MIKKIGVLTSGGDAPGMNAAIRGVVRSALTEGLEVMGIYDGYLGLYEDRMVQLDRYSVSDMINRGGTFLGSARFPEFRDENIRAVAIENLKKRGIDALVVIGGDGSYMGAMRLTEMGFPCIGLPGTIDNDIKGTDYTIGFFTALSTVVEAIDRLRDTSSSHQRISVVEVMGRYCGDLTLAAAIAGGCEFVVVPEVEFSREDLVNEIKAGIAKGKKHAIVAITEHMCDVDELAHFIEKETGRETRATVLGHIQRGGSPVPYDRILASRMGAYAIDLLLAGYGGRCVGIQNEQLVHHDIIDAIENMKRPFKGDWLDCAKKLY
Experiment: CE-MS quantification of metabolites after incubation
Type: biochemical
Details: 5 mM S7P, 2 mM ATP, 2 uM enzyme, 50 mM MOPS potassium buffer, 37 °C, 1 h

SMILES: O=P(O)(O)OC[C@@H](O)[C@H]1OC(O)(CO)[C@@H](O)[C@@H]1O (stereo partly shown) [S7P]
- CE-MS quantification of metabolites after incubation: When S7P and ATP were incubated with PfkA, S7P and ATP were consumed
